Reference: patent US20090061022A1, “Pharmaceutical composition comprising arsenite for the treatment of malignancy” (priority 2004, published 2009)
Values joined by “and” are separate entries in the source; they are usually repeats but may differ in a detail not shown here. Equal values may be shown once.

Assays:
[1] = system: panel of 9 human cancer cell lines; test: Cytotoxic activity, whole panel of 9 human cancer cell lines (means, active/total); type: cell-based
Procedure: Three kinds of stock solutions were prepared for in vitro cytotoxic activity test. The first solution is DMSO (dimethyl sulfoxide) mixed with sodium meta-arsenite. […] The third solution is DMSO mixed with arsenic acid sodium salt. Those three solutions were diluted with culture medium (RPMI 1640). The final concentrations of DMSO in those three solutions are less than 0.3 vol %.
(§1) Nine kinds of human cancer cell lines out of six kinds of cancers were grown at 37° C. under a controlled atmosphere of 95% air and 5% CO2. The cells were grown on monolayer cultures of RPMI 1640 cell culture medium supplemented with 10% fetal calf serum.
(§2) The grown cells were harvested from exponential phase cultures by trypsinization and counted. The counted cells were placed in a plate, which has ninety six wells. Each well on the plate is in a shape of a flat-bottomed microtitre. Density of the cells in a suspension was adjusted depending on the cell line. The suspension was prepared by diluting the grown cells with the culture medium (RPMI 1640). […] Then add 50 μl of culture medium (RPMI 1640) only to 6 wells, 50 μl/well, among the 96 wells of one plate. It is called controlled. One well is filled with culture medium plus 5-FU. And another 50 μl of culture medium plus one of the stock solutions were added to each of the left 89 wells to allow cells to resume exponential growth.
The cytotoxic activity test was executed with three plates simultaneously to check reliability of the data obtained. The three plates contain the same samples of cancer cells. The three plates were then incubated for 3-7 days under the same controlled atmosphere and cell proliferation was assessed with a modified propodium iodide fluorescence assay. After thawing of the plates, fluorescence was measured using a Millipore Cytofluor 2350-microplate reader (excitation 530 nm emission 620 nm) in order to quantify the total cell number. The assay included untreated and positive controls containing 5-FU.
Growth inhibition is defined as (numbers of cancer cell alive) treated (T)/(number of cells) control (C)×100% (T/C %).

RXF 944LX [2] = test: Dose finding study in human renal cancer model RXF 944LX in nude mice (i.p. days 0, 7, 14)
Source text: In a dose finding study, the potential anticancer activity of sodium meta-arsenite and arsenic acid sodium salt versus arsenic trioxide was examined in the human renal cancer model, RXF 944LX.
(§3) Cancer fragments (1-2 mm in diameter), obtained from xenografts in serial passage in nude mice, were implanted subcutaneously (S.C.) in a flank of male NRMI nude mice (one fragment per mouse). Mice with appropriate cancer volumes (5-7 mm in diameter) were randomly distributed to treatment and control groups (4 mice/group). The start of treatment was day 0. Cancer volume and body weights were measured at least twice per week.
1) Sodium meta-arsenite (3, 10, 30 mg/kg/day), 2) Arsenic acid sodium salt (3, 10, 30 mg/kg/day) and 3) Arsenic trioxide (3, 10, 30 mg/kg/day) were administered intraperitoneally (i.p.) once daily on days 0, 7 and 14.
Stock solution of sodium meta-arsenite and arsenic acid sodium salt (3 mg/ml) were prepared in 5% (w/v) dextrose solution, respectively, to minimize acute arsenic toxicity. For arsenic trioxide, 9 mg of arsenic trioxide was dissolved in 1M NaOH (75 μl) followed by mixing with sterile aqua injectabilia (2175 μl) and sterile 20% (w/v) dextrose in water (500 μl). Further dilution to the desired concentration was done with a 5% dextrose solution to give a final concentration of 3 mg/ml.
(§4) The cancer volume of each animal was determined by two-dimensional measurement using calipers. The volume was calculated according to the formula: (a×b^2)×0.5; wherein a and b represent two perpendicular diameters in which a (length) is the larger diameter and b (width) the smaller diameter.
(§5) Relative cancer volumes (RCV) were calculated for each individual cancer by dividing the cancer volume on day X by the cancer volume on day 0 multiplied by 100%. The cancer volume of a treatment group was expressed as the median RCV of all mice of the group. Median RCV values were used for drawing growth curves and treatment evaluation. Optimal cancer growth inhibition at a particular day within the treatment period was calculated from the median RCV values of the treated (T) versus the controlled (C) group multiplied by 100%. A T/C value<50% was considered as anti-cancer activity.

RXF 944LX [3] = test: Anticancer activity in RXF 944LX cancer bearing nude mice, intermittent and daily schedules; conditions: for MTD: i.p., RXF 944LX
Procedure: as §3, §4, §5
In the experiment with renal cancer RXF 944LX, the anticancer activity of the compounds was explored using two administration schedules; 1) intermittent schedule of 4 days×3, and 2) a daily schedule for 2 weeks (days 0-4, 7-11).
The dose levels chosen for sodium meta-arsenite and arsenic acid sodium salt in these schedules were based on the experience in the 1st experiment. Additional small dose finding studies were executed.

[4] = system: panel of 12 human cancer cell lines; test: Cytotoxic activity, whole panel of 12 human cancer cell lines, modified propidium iodide assay; conditions: panel of 12 human cancer cell lines, 4 days
Procedure: as §1
as §2, with “1640). Concentration of the cells were varied from 5×10^4 to 1×10^5 viable cells/ml. 100 μl of the suspension was placed in each well of the plate.” for “1640).”
(§6) In a further study, the cytotoxic activity profile of sodium meta-arsenite and arsenic acid sodium salt was investigated in different panels containing twelve (12) human cancer cell lines from eight (8) kinds of human cancers. The cancer cell samples were prepared as described in 1-1-B. Propidium iodide fluorescence assay method for this test was modified as the follows.

LXFE 66NL = LXFE 66NL non-small cell lung; resistant
Procedure: as §1
as §2, with “1640). Concentration of the cells were varied from 5×10^4 to 1×10^5 viable cells/ml. 100 μl of the suspension was placed in each well of the plate.” for “1640).”
as §6

LXFA 629L = LXFA 629L non-small cell lung; resistant
Procedure: as §1
as §2, with “1640). Concentration of the cells were varied from 5×10^4 to 1×10^5 viable cells/ml. 100 μl of the suspension was placed in each well of the plate.” for “1640).”
as §6

RXF393NL (renal) = conditions: resistant
Procedure: as §1
as §2, with “1640). Concentration of the cells were varied from 5×10^4 to 1×10^5 viable cells/ml. 100 μl of the suspension was placed in each well of the plate.” for “1640).”
as §6

GXF 251L (gastric) = conditions: resistant
Procedure: as §1
as §2, with “1640). Concentration of the cells were varied from 5×10^4 to 1×10^5 viable cells/ml. 100 μl of the suspension was placed in each well of the plate.” for “1640).”
as §6

[5] = mean over human cancer cell lines tested (9 line panel)
[6] = 32 mg/kg i.p., days 0-4, 7, 14-18

Question: How did the “Assessment from comparison of the IC50 values” ([1]; 9 cell line panel) turn out when arsenic acid sodium salt was run?
Answer: inactive

Question: What about the IC50 [1, 5] of the same substance?
Answer: 99 µM

Question: And the IC90 [1, 5]?
Answer: 248 µM

Question: And the “Mean IC50” value [1, 5]?
Answer: 30.8 µg/mL

Question: What about the “Mean IC90” value [1, 5] of the same substance?
Answer: 77.5 µg/mL

Question: What about the “Mean IC70” value ([1]; mean over human cancer cell lines tested (9 line panel), sodium salt) of the same substance?
Answer: 44.7 μg/ml and 143 μM

Question: What about the “BW loss % (day)” value (RXF 944LX [2]; 3 mg/kg i.p., days 0, 7, 14) of the same substance?
Answer: +15 (21) %

Question: What about the Drug-related deaths (RXF 944LX [2]; 3 mg/kg i.p., days 0, 7, 14) of the same substance?
Answer: 0/4

Question: What about the Rating (RXF 944LX [2]; 3 mg/kg i.p., days 0, 7, 14) of the same substance?
Answer: − (−T/C ≧ 50%)

Question: What about the “SGD (specific growth delay)” value (RXF 944LX [2]; 3 mg/kg i.p., days 0, 7, 14) of the same substance?
Answer: −0.5

Question: What about the T/C % (RXF 944LX [2]; 3 mg/kg i.p., days 0, 7, 14) of the same substance?
Answer: 90%

Question: What about the “BW loss % (day)” value (RXF 944LX [2]; 10 mg/kg i.p., days 0, 7, 14) of the same substance?
Answer: +10 (21) %

Question: What about the Drug-related deaths (RXF 944LX [2]; 10 mg/kg i.p., days 0, 7, 14) of the same substance?
Answer: 0/4

Question: What about the Rating (RXF 944LX [2]; 10 mg/kg i.p., days 0, 7, 14) of the same substance?
Answer: − (−T/C ≧ 50%)

Question: What about the “SGD (specific growth delay)” value (RXF 944LX [2]; 10 mg/kg i.p., days 0, 7, 14) of the same substance?
Answer: −0.2

Question: What about the T/C % (RXF 944LX [2]; 10 mg/kg i.p., days 0, 7, 14) of the same substance?
Answer: 74%

Question: What about the “BW loss % (day)” value (RXF 944LX [2]; 30 mg/kg i.p., days 0, 7, 14) of the same substance?
Answer: +14 (21) %

Question: What about the Drug-related deaths (RXF 944LX [2]; 30 mg/kg i.p., days 0, 7, 14) of the same substance?
Answer: 0/4

Question: What about the Rating (RXF 944LX [2]; 30 mg/kg i.p., days 0, 7, 14) of the same substance?
Answer: − (−T/C ≧ 50%)

Question: And the “SGD (specific growth delay)” value (RXF 944LX [2]; 30 mg/kg i.p., days 0, 7, 14)?
Answer: 0.1

Question: What about the T/C % (RXF 944LX [2]; 30 mg/kg i.p., days 0, 7, 14) of the same substance?
Answer: 88%

Question: What about the “T/C values of the 3 treatment groups” value (RXF 944LX [2]; 3, 10, 30 mg/kg/day i.p., days 0, 7, 14) of the same substance?
Answer: greater than 74%

Question: And the “Maximum Tolerated Dose (MTD)” value (RXF 944LX [2]; i.p. once daily on days 0, 7 and 14, RXF 944LX bearing nude mice)?
Answer: greater than 30 mg/kg/day

Question: What about the “BW loss % (day)” value (RXF 944LX [3]; 16 mg/kg i.p., days 0-4, 7-11) of the same substance?
Answer: −8 (14) %

Question: What about the Drug-related deaths (RXF 944LX [3]; 16 mg/kg i.p., days 0-4, 7-11) of the same substance?
Answer: 2/6

Question: And the “SGD (specific growth delay)” value (RXF 944LX [3]; 16 mg/kg i.p., days 0-4, 7-11)?
Answer: 0

Question: What about the T/C % (RXF 944LX [3]; 16 mg/kg i.p., days 0-4, 7-11) of the same substance?
Answer: 76%

Question: What about the “BW loss % (day)” value (RXF 944LX [3]; 30 mg/kg i.p., days 0, 4, 8) of the same substance?
Answer: +25 (14) %

Question: And the Drug-related deaths (RXF 944LX [3]; 30 mg/kg i.p., days 0, 4, 8)?
Answer: 1/6

Question: What about the “SGD (specific growth delay)” value (RXF 944LX [3]; 30 mg/kg i.p., days 0, 4, 8) of the same substance?
Answer: −0.2

Question: What about the T/C % (RXF 944LX [3]; 30 mg/kg i.p., days 0, 4, 8) of the same substance?
Answer: 100%

Question: And the “BW loss % (day)” value (RXF 944LX [3]; [6])?
Answer: −10 (14) %

Question: And the Drug-related deaths (RXF 944LX [3]; [6])?
Answer: 3/6

Question: And the “BW loss % (day)” value (RXF 944LX [3]; 45 mg/kg i.p., days 0, 4, 8)?
Answer: +22 (14) %

Question: And the Drug-related deaths (RXF 944LX [3]; 45 mg/kg i.p., days 0, 4, 8)?
Answer: 2/6

Question: What about the “SGD (specific growth delay)” value (RXF 944LX [3]; 45 mg/kg i.p., days 0, 4, 8) of the same substance?
Answer: −0.3

Question: And the T/C % (RXF 944LX [3]; 45 mg/kg i.p., days 0, 4, 8)?
Answer: 100%

Question: And the MTD (RXF 944LX [3]; daily schedule (days 0-4, 7-11))?
Answer: 16 mg/kg/day

Question: And the MTD (RXF 944LX [3]; intermittent schedule (4 days×3))?
Answer: 45 mg/kg/day

Question: What about the “Mean IC50” value [4] of the same substance?
Answer: 25.5 µg/mL

Question: And the “Mean IC90” value [4]?
Answer: 76.6 µg/mL

Question: And the “Mean IC70” value ([4]; sodium salt)?
Answer: 40.1 μg/ml and 129 μM

Question: What about the IC50 ([4]; read-out: Mean IC50) of the same substance?
Answer: 82 µM

Question: And the IC90 ([4]; read-out: Mean IC90)?
Answer: 246 µM

Question: And the IC70 (LXFE 66NL)?
Answer: > 100 µg/mL

Question: And the IC70 (LXFA 629L)?
Answer: > 100 µg/mL

Question: And the IC70 (RXF393NL (renal))?
Answer: > 100 µg/mL

Question: What about the IC70 (GXF 251L (gastric)) of the same substance?
Answer: > 100 µg/mL
